This note sets out measurements from ChEMBL document CHEMBL1201862, “PubChem BioAssay data set” (2004).

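Method: 48-hour compound exposure of cells in 96-well plates, five concentrations, linear interpolation of endpoints. Here, GI50 denotes the concentration required for 50% inhibition of growth.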 The source made the active and inactive calls. Rule as the data show it: active = GI50 up to about 1.1 µM and inactive = higher.

Assay in all cases: NCI tumour cell line growth inhibition, 48 h
Experiment [1] concerns RXF 631.
Experiment [2] relates to KM-20L2.
Experiment [3] deals with HOP-18.
Experiment [4] relates to DMS-114.
Experiment [5] deals with DLD-1.
Experiment [6] relates to SNB-78.
Experiment [7] concerns XF498.
Experiment [8] deals with LXFL 529.
Experiment [9] concerns DMS-273.

In the case of `CC(=O)OCC1OC(NC(=S)N/N=C2\CC(c3ccccc3)Oc3ccccc32)C(OC(C)=O)C(OC(C)=O)C1OC(C)=O` (stereo unspecified), the GI50 is 32 µM (inactive) in experiment [1]; > 100 µM (inactive) in experiment [2]; > 100 µM (inactive) in experiment [3]; > 100 µM (inactive) in experiment [4]; > 100 µM (inactive) in experiment [5]; > 100 µM (inactive) in experiment [6]. Moreover, the GI50 in experiment [7] was > 100 µM (inactive); in [8], > 100 µM (inactive); in experiment [9] it was 56.8 µM (inactive).
`Cc1nn(C(=O)CC(=O)Nc2ccccc2Cl)c(C)c1/N=N/c1ccccc1Cl`: the GI50 in experiment [1] is > 100 µM (inactive); in [2], > 100 µM (inactive); in [3] it was > 100 µM (inactive); in experiment [4] it was > 100 µM (inactive); in [5], > 100 µM (inactive); in [6], 40.9 µM (inactive). Besides, the GI50 in [7], in experiment [8] and in experiment [9] was > 100 µM (inactive) throughout.
Take `CCN(CC)CCNc1ccc2ncn3c4ccc(OC)cc4c(=O)c1c23`: the GI50 in experiment [1] is 1.61 µM (inactive); in experiment [2], 0.964 µM (active); in experiment [3], 17 µM (inactive); in experiment [4], 11.5 µM (inactive); in [5], 1.08 µM (active); in experiment [6], 14 µM (inactive). The GI50 in experiment [7] is 5.02 µM (inactive); in experiment [8], 2.46 µM (inactive); in [9], 1.67 µM (inactive).
`O=C1CC(C[C@H](O)C2CCCCC2O)CC(=O)N1Cc1ccccc1` (stereo partly specified): the GI50 in experiment [1], in experiment [2], in experiment [3], in experiment [5], in [6] and in experiment [7] was > 100 µM (inactive) each time. Also, the GI50 in [8] and in experiment [9] was > 100 µM (inactive) each time.
As for `C[N+]1(C)C/C(=C\c2ccccc2)C(=O)/C(=C/c2ccccc2)C1`, the GI50 in [1] is > 100 µM (inactive); in experiment [2], > 100 µM (inactive); in experiment [3], > 100 µM (inactive); in experiment [4], 39.5 µM (inactive); in experiment [5], > 100 µM (inactive); in [6], > 100 µM (inactive). Also, the GI50 in experiment [7] was > 100 µM (inactive); in experiment [8], 70.1 µM (inactive); in experiment [9], 37.5 µM (inactive).
As to `CC(=O)O/C(C)=C\C(=O)O/N=C(\N)c1ccc(C)cc1`, the GI50 was 22.5 µM (inactive) in [1]; 33.7 µM (inactive) in experiment [2]; 26.2 µM (inactive) in [3]; 18.8 µM (inactive) in experiment [4]; 18.9 µM (inactive) in experiment [5]; 21.1 µM (inactive) in [6]. The GI50 in [7] is 23.9 µM (inactive); in [8], 19.5 µM (inactive); in experiment [9], 28.4 µM (inactive).
Regarding `COc1cc(C2c3cc4c(cc3[C@@H](Nc3ccc5c(c3)OCCO5)C3COC(=O)[C@H]23)OCO4)cc(OC)c1O` (stereo partly specified), the GI50 in [1] was 0.273 µM (active); in [2] it was 0.745 µM (active); in [3] it was 3.98 µM (inactive); in experiment [4] it was 0.303 µM (active); in [5], 0.692 µM (active); in [6], 1.84 µM (inactive). Besides, the GI50 was 0.525 µM (active) in [7], 3.44 µM (inactive) in experiment [8] and 0.109 µM (active) in experiment [9].
`COc1cc2c3c(c1OC)C1(C=CC(=O)C=C1)C[C@H]3N(C)CC2` [PRONUCIFERINE]: the GI50 in [1], in experiment [2], in experiment [3], in experiment [4], in experiment [5] and in [6] was > 100 µM (inactive) throughout. In addition, the GI50 in experiment [7], in experiment [8] and in [9] was > 100 µM (inactive) in each case.
